Reference: ChEMBL document CHEMBL1201862, “PubChem BioAssay data set” (2004)
Active and inactive are the calls of the source.

Experiments:
[1] = A cytotoxicity screen of small molecule inhibitors of the PhoP region in Salmonella typhi identified in the primary screen. [Related pubchem assays: 1850, 1864, 1985 ]; assay type: functional
[2] = target: T1, Long-chain-fatty-acid--AMP ligase FadD28 (Mycobacterium tuberculosis, UniProt P9WQ59); experiment: Fluorescence polarization aasay to screen for inhibitors that compete for the binding of FadD28 to a bisubstrate Measured in Biochemical System Using Plate Reader - 2147-01_Inhibitor_Dose_CherryPick_Activity.; assay type: functional, Mycobacterium tuberculosis H37Rv
T1 sequence (P9WQ59 whole entry): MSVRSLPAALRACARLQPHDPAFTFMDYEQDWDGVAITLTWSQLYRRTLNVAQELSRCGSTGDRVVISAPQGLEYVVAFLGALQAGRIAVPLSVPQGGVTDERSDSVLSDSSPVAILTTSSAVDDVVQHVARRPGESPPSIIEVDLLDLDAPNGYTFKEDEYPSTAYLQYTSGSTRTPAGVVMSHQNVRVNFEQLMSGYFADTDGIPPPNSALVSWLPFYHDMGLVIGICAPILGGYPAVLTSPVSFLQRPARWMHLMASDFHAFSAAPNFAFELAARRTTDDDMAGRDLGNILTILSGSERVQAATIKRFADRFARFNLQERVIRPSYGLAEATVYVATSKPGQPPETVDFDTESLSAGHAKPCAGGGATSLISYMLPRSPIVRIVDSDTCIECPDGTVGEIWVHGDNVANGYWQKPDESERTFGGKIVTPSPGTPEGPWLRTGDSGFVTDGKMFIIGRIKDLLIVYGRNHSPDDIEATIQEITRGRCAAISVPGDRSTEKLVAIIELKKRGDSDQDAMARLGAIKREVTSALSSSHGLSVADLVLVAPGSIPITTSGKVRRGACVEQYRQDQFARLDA

[3] = target: Ras and Rab interactor 1/Tyrosine-protein kinase ABL1 (Homo sapiens, UniProt P00519+Q13671); assay type: functional;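 further: biochemical TR-FRET dose-response test measuring inhibition of binding between Rin1 and Abl proteins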
P388/ADR = experiment: cells; assay type: functional
SN12K1 = experiment: cells; assay type: functional
P388 = experiment: cells; assay type: functional
[4] = intracellular Trypanosoma cruzi inhibitors in host cells – cell-based, plate reader, cherry-pick samples, set 3, dose response (AID 651818); assay type: functional;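 further: compounds incubated with infected cells for about four days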
[5] = CEM21 lymphoblast cell cytotoxicity, dose response, cytotoxicity control for viral fusion inhibitor project, CellTiter-Glo luminescence, cherry-picked (AID 652042); assay type: functional, cell-based;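 further: potency for signal decrease meaning cytotoxicity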
[6] = ZM109 Env clade C HIV-1 fusion inhibitors, dose response, HeLa effector, CEM target cells, luciferase, cherry-pick (AID 652058); assay type: functional, cell-based
[7] = inhibitors of clade B AD8 Env fusion, dose response, cell-based, cherry-pick (AID 652062); assay type: functional;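 further: luciferase signal from cell-cell fusion driven by HIV-1 clade B AD8 Env; potency is for inhibitors of fusion seen as a drop in luminescence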
[8] = P. falciparum 3D7-ScDHODH growth inhibitors, dose response, SYBR Green, dry powder samples (AID 1159570); assay type: functional, cell-based;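 further: parasite growth measured after 72 hours of compound exposure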
[9] = P. falciparum Dd2 growth inhibitors, dose response, SYBR Green, cherry-picked samples (AID 1159567); assay type: functional, cell-based
[10] = P. falciparum Dd2 growth inhibitors, dose response, SYBR Green, dry powder samples (AID 1159566); assay type: functional, cell-based;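 further: potency for growth inhibition with lower SYBR green DNA signal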
[11] = P. falciparum ATP4 D1247Y mutant growth inhibitors, dose response, NITD609-resistant line, SYBR Green, dry powder (AID 1159571); assay type: functional, cell-based;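 further: parasites synchronized at ring stage by sorbitol before testing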
[12] = target: T2, RNA-binding protein pos-1 (Caenorhabditis elegans, UniProt G5EF15); experiment: inhibitors of POS-1/mex-3 RNA binding, dose response, biochemical, fluorescence polarization (AID 1964);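 further: purified POS-1 fused to maltose binding protein made in E. coli; potency of compounds blocking POS-1 binding to fluorescent RNA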
T2 sequence (G5EF15 whole entry): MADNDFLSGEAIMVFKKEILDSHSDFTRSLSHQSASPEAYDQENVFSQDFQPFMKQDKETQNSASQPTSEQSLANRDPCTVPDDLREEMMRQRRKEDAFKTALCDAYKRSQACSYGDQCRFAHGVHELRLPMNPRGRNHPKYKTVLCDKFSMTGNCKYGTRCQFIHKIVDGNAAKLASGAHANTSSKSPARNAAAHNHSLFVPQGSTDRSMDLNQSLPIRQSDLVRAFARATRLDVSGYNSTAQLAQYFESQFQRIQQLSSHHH

[13] = target: T3, Zinc finger protein mex-5 (Caenorhabditis elegans, UniProt Q9XUB2); experiment: MEX-5/TCR-2 RNA interaction inhibitors, dose response, biochemical, C. elegans, fluorescence polarization (AID 1960)
T3 sequence (Q9XUB2 whole entry): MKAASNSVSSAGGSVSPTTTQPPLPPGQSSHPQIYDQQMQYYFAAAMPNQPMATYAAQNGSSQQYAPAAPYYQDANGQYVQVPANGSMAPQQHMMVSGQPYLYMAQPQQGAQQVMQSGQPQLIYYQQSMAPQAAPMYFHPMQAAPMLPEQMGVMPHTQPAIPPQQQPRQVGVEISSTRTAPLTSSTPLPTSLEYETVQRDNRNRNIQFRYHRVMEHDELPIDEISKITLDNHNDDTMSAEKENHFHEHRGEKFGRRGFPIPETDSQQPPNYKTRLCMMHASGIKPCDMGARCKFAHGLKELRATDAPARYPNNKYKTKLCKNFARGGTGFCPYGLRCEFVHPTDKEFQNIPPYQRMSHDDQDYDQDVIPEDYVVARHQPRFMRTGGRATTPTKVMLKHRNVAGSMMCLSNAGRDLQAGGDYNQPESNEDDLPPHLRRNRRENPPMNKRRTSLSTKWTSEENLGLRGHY

Large T antigen = Large T antigen (Simian virus 40, UniProt P03070); assay type: functional, Betapolyomavirus macacae;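 further: Confirmatory-stage PubChem screen for compounds that inhibit SV40 T antigen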
[14] = target: Glucose-6-phosphate 1-dehydrogenase (Homo sapiens, UniProt P11413); experiment: human G6PD enzyme inhibitors, dose response, selectivity assay for P. falciparum G6PD inhibitor project, biochemical, fluorescence (AID 504792); assay type: functional
[15] = target: FAD-linked sulfhydryl oxidase ALR (Homo sapiens, UniProt P55789); experiment: inhibitors of human ALR sulfhydryl oxidase, dose response, biochemical, H2O2 detection, luminescence, cherry-pick (AID 493248)
Sequence of FAD-linked sulfhydryl oxidase ALR (P55789 whole entry): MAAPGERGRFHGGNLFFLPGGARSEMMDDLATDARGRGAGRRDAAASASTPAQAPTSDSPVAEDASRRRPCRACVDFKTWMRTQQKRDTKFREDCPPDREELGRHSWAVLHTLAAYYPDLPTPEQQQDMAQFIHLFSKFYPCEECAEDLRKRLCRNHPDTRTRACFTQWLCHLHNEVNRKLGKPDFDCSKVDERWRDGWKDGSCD

Sequence of Ras and Rab interactor 1/Tyrosine-protein kinase ABL1 (P00519 whole entry): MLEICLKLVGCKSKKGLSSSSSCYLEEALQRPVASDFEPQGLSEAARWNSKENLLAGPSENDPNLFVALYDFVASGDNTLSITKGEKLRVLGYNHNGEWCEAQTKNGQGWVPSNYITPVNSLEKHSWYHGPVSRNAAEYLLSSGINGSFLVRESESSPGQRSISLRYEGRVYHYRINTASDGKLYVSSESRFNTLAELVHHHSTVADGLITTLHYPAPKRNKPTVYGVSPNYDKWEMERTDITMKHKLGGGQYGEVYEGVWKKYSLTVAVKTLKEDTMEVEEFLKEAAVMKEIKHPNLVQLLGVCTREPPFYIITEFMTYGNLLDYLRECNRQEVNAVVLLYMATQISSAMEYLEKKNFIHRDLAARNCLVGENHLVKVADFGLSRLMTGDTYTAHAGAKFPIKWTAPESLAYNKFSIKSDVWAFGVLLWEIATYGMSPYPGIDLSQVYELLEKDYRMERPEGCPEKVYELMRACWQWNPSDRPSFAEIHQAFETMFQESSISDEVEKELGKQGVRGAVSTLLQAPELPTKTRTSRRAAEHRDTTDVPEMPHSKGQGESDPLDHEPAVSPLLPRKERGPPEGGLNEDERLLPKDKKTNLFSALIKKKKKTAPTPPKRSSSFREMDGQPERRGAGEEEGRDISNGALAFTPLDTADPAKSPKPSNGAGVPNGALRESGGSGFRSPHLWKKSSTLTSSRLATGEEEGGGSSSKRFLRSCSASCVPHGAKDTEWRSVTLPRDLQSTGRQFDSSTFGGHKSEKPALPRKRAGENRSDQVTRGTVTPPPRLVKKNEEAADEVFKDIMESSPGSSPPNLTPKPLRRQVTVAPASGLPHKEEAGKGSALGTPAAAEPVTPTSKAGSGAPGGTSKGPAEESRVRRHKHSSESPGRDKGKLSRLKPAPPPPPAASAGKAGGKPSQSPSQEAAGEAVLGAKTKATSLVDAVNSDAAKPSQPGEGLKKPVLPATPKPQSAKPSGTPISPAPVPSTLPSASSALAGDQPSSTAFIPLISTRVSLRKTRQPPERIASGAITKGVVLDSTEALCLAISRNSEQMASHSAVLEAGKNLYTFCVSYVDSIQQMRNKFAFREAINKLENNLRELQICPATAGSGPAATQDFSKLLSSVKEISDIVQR
Sequence of Ras and Rab interactor 1/Tyrosine-protein kinase ABL1 (Q13671 whole entry): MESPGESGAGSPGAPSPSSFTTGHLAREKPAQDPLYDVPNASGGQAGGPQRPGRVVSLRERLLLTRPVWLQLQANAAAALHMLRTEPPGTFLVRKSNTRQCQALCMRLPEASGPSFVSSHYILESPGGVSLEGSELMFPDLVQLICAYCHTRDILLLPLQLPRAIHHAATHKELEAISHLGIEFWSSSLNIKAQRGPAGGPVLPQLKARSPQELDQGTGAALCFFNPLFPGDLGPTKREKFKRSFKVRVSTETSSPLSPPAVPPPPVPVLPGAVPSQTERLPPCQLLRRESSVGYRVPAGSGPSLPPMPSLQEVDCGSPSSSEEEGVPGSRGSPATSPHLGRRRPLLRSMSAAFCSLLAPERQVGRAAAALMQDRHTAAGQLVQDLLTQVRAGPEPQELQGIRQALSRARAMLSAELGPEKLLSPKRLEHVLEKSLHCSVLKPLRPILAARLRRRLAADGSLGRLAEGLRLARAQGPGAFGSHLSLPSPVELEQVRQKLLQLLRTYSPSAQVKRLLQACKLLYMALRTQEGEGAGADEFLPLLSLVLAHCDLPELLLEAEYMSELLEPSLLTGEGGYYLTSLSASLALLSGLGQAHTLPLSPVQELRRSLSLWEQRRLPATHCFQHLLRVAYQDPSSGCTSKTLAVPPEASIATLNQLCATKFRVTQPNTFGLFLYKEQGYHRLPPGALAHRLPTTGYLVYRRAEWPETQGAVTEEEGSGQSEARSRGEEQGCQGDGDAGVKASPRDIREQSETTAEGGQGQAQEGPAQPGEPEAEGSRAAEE
Sequence of Large T antigen (P03070 whole entry): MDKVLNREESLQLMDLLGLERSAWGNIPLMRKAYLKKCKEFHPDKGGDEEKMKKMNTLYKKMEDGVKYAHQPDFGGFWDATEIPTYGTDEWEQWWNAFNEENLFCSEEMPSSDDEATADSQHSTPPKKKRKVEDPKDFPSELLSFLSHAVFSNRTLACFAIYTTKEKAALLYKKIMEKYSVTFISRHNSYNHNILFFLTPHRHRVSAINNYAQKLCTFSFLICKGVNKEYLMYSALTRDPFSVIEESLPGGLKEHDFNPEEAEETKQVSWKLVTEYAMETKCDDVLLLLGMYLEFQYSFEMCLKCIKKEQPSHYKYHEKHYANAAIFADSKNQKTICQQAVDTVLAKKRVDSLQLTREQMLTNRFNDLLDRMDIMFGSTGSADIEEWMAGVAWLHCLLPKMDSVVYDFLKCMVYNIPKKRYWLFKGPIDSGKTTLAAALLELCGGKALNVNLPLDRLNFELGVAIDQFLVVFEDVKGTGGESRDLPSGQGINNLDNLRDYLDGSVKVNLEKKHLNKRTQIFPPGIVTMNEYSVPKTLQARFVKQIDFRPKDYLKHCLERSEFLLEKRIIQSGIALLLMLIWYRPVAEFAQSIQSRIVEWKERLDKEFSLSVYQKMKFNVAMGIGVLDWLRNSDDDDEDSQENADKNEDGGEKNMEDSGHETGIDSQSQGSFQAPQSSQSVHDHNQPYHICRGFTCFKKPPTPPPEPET
Sequence of Glucose-6-phosphate 1-dehydrogenase (P11413 whole entry): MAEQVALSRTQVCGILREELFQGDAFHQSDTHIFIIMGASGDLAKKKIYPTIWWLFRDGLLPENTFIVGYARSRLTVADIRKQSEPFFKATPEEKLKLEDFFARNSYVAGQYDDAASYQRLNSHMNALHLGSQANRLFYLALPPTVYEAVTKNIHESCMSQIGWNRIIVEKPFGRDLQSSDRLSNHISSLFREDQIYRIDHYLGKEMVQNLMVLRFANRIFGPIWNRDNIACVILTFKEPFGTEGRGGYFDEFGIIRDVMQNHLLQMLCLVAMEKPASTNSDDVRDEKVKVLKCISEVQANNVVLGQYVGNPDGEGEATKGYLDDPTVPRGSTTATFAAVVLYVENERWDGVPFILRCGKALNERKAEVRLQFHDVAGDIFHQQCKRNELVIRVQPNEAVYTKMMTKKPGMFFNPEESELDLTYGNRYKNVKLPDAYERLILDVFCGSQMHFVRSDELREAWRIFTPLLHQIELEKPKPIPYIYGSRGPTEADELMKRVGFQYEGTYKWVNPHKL

SMILES: c1cc(N2CCCC2)ccc1C(c1nnnn1C1CCCCC1)N1CCOCC1 (centres undefined)
- EC50 [1]: > 50 µM (active)

SMILES: Cc1cccc(NC(=O)Cn2c(=O)oc3cc(S(=O)(=O)N4CCCC4)ccc32)n1
- AC50 [2]: 34.8 µM (active)

SMILES: CN(C(=O)c1ccc(NC(=O)Cc2ccc(NC(=O)C3CCN(C(=O)C4CCCC4)CC3)cc2)cc1)C1CCCC1
- IC50 [3]: 12.6 µM (inactive)

SMILES: O=C1CCCn2c3ccccc3c3ccnc1c32
- GI50 (P388/ADR; Mus musculus, P388/ADR): 20 µM (inactive)
- GI50 (SN12K1; Homo sapiens, SN12K1): 39.9 µM (inactive)
- GI50 (P388; Mus musculus, P388): 22.6 µM (inactive)

SMILES: Nc1cc2c(cc1[N+](=O)[O-])[nH]c1c(-c3ccccc3)nccc12
- GI50 (P388/ADR; Mus musculus, P388/ADR): 17.7 µM (inactive)
- GI50 (SN12K1; Homo sapiens, SN12K1): 20.7 µM (inactive)
- GI50 (P388; Mus musculus, P388): 17.2 µM (inactive)

SMILES: Cn1sc2ccccc2c1=S
- GI50 (P388/ADR; Mus musculus, P388/ADR): 0.441 µM (active)
- GI50 (SN12K1; Homo sapiens, SN12K1): 2.79 µM (inactive)
- GI50 (P388; Mus musculus, P388): 0.294 µM (active)

SMILES: O=P1(Oc2ccc(Cl)cc2Cl)Oc2ccc3ccccc3c2-c2c(ccc3ccccc23)O1
- GI50 (P388/ADR; Mus musculus, P388/ADR): 51.4 µM (inactive)
- GI50 (SN12K1; Homo sapiens, SN12K1): 20.7 µM (inactive)
- GI50 (P388; Mus musculus, P388): 33.3 µM (inactive)

SMILES: OCCCNc1ncnc2c1ncn2[C@H]1CN(Cc2ccc(-c3ccccc3)cc2)C[C@@H](CO)O1
- IC50 [3]: 20.6 µM (inactive)

SMILES: C[C@H](CO)N1C[C@H](C)[C@H](CN(C)Cc2ccc(-c3ccccc3)cc2)Oc2c(NC(=O)NC3CCCCC3)cccc2C1=O
- AC50 [4]: 3.38 µM (active)

SMILES: C[C@H]1CN([C@@H](C)CO)C(=O)c2cc(NS(=O)(=O)c3ccccc3)ccc2O[C@@H]1CN(C)Cc1ccc(-c2ccccc2)cc1
- AC50 [4]: 6.29 µM (active)

SMILES: C[C@@H]1CN([C@@H](C)CO)C(=O)c2cccc(NC(=O)c3nc4ccccc4s3)c2O[C@H]1CN(C)Cc1ccc(C(=O)Nc2ccccc2N)cc1
- AC50 [4]: 2.09 µM (active)

SMILES: Cc1ccc(S(=O)(=O)N(C)C[C@@H]2Oc3cc(C#CC4CCCC4)ccc3S(=O)(=O)N([C@H](C)CO)C[C@H]2C)cc1
- AC50 [5]: 61.4 µM (active)
- AC50 [6]: 2.34 µM (active)
- AC50 [7]: 35.2 µM (active)

SMILES: COc1ccc2[nH]c3c(C)c4cc[n+](C)cc4c(C)c3c2c1
- GI50 (P388/ADR): 47.4 µM (inactive)
- GI50 (SN12K1): 0.287 µM (active)
- GI50 (P388): 0.796 µM (active)

SMILES: CC(C)(C)[S+]([O-])N1Cc2cc(C(=O)NCc3ccc(Oc4ccccc4)cc3)nc(-c3cccc(-c4cccc(F)c4)c3)c2[C@@H]1CCO (some centres undefined)
- AC50 [8]: 0.831 µM (active)
- AC50 [9]: 1.23 µM (active)
- AC50 [10]: 0.658 µM (active)
- AC50 [11]: 0.417 µM (active)

SMILES: CCCN1CCc2cccc3c2[C@H]1Cc1ccc(O)c(O)c1-3
- EC50 [12]: 5.56 µM (active)
- EC50 [13]: 3.12 µM (active)
- IC50 (Large T antigen): 29.7 µM (active)
- IC50 [14]: > 80 µM (inactive)
- AC50 [15]: 0.009 µM (active)
